Data taken from US20220265845A1, “AMINOTHIOLESTER COMPOUNDS AND USES THEREOF” (ADVANCED BIODESIGN, priority 2019, published 2022).

Columns and labels:
Assay in all cases: Kinetic parameters and inhibition type from Kobs versus inhibitor concentration plots
Assay type in all cases: biochemical
[1] = target: T1, Human recombinant ALDH3A1 (Homo sapiens, UniProt P30838); settings: for Ki: printed in the Kinact/Ki column in place of Kinact/Ki
T1 sequence (P30838 1-453): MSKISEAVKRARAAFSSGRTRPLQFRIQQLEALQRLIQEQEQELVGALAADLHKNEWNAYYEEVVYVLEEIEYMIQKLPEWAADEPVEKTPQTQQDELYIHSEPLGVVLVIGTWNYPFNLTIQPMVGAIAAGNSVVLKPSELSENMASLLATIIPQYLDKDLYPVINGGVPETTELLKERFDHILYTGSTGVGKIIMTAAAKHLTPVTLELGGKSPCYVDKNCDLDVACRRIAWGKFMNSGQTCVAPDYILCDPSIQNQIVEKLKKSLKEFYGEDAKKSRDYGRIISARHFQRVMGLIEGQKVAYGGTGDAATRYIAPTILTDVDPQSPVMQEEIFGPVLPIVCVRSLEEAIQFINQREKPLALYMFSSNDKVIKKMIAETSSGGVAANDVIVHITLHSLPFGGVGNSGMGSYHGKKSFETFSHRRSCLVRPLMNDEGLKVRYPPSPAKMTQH
Method: (§1) The kinetic data are expressed as the mean±standard error from three independent determination. Kinact/Ki was determined from Kobs versus concentration of the inhibitor [I] plots. […] The Kobs were obtained from negative exponential fit using non-linear regression program GraFit 5.0 (Erithacus software).
(§2) To determine the inhibition mechanisms of the tested compounds for each isoenzyme, the corresponding Kobs were calculated as mentioned above, plotting product concentration vs time incubation of the enzymes with the test compounds at 300 μM, 200 μM, 100 μM, 50 μM, 20 μM and 10 μM. The kobs were obtained for each concentration of inhibitor tested, from the negative exponential fit using non-linear regression program GraFit 5.0 (Erithacus software). Finally, the kinetic parameter of kinact/KI was determined from the plot of kobs versus the corresponding concentration of inhibitor. The slope of the linear fit of data indicated the rate constant in μM^−1·min^−1.

[2] = target: T2, Human recombinant ALDH1A3 (Homo sapiens, UniProt P47895); settings: for kinact/KI: from Kobs versus [I] plots; for Specificity of interaction with ALDH1A3: compared with DIMATE
T2 construct: purchased Creative BioMart, NY, USA
T2 sequence (P47895 1-512): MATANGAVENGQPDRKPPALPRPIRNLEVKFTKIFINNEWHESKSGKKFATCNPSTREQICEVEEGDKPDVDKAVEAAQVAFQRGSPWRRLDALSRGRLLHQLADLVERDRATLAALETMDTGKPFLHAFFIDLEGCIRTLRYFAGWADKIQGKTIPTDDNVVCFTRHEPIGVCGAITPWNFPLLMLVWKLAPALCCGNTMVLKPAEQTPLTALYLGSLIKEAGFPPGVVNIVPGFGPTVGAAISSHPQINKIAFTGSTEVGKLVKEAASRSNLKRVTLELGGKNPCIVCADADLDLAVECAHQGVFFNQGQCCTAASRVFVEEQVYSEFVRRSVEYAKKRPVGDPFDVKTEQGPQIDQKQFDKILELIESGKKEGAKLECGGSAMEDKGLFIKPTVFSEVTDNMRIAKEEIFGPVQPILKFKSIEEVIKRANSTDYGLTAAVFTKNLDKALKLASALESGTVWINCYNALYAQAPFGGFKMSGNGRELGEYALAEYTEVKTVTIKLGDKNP
Method: as §1, §2

[3] = target: T3, Human recombinant ALDH1A2 (Homo sapiens, UniProt O94788); settings: from Kobs versus [I] plots
T3 construct: purchased Creative BioMart, NY, USA
T3 sequence (O94788 1-518): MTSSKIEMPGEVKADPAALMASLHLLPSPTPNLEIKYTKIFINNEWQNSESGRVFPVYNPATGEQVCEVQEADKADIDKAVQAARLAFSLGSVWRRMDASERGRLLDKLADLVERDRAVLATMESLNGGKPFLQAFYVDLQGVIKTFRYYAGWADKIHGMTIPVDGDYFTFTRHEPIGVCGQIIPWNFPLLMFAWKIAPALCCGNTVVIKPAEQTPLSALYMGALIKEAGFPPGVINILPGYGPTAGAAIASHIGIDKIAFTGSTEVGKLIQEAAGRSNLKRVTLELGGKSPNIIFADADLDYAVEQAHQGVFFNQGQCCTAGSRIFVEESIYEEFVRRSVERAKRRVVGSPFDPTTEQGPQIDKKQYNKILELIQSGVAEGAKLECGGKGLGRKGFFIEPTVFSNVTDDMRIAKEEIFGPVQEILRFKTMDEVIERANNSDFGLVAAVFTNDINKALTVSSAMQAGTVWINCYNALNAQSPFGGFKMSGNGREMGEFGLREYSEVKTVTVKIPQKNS
Method: as §1, §2

[4] = target: T4, Human recombinant ALDH1A1 (Homo sapiens, UniProt P00352); settings: for kinact/KI: from Kobs versus [I] plots
T4 construct: purchased Creative BioMart, NY, USA
T4 sequence (P00352 1-501): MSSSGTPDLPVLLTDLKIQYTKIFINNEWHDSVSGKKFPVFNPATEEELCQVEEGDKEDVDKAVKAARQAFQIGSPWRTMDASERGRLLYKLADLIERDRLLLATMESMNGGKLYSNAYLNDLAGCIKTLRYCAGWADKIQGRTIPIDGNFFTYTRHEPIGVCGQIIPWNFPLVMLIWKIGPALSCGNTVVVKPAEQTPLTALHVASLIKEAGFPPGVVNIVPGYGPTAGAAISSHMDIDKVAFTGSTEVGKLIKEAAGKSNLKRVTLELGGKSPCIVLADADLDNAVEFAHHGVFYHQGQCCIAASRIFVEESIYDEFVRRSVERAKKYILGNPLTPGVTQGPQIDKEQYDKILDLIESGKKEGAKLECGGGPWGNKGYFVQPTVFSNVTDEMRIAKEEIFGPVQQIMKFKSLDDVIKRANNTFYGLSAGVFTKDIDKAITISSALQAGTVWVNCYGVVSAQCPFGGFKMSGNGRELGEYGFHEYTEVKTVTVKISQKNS
Method: as §1, §2

[5] = target: T5, Human recombinant ALDH2 (Homo sapiens, UniProt P05091); settings: from Kobs versus [I] plots
T5 construct: purchased Creative BioMart, NY, USA
T5 sequence (P05091 18-517): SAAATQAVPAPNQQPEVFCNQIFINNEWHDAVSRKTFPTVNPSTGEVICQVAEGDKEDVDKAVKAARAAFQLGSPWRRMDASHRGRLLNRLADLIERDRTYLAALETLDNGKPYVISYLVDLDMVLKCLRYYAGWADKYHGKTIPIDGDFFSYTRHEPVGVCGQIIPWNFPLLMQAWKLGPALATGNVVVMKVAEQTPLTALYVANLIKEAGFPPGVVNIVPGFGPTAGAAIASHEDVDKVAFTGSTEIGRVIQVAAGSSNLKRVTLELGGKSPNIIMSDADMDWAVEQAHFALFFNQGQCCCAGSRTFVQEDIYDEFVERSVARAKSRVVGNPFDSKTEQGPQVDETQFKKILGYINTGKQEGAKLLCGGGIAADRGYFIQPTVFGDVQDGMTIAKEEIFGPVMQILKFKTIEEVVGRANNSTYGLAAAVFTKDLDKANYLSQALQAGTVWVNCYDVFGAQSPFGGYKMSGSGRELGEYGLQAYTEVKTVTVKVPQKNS
Method: as §1, §2

| Ki [1] | ALDH1A3 Inhibition Type [2] | kinact/KI [2] | kinact/KI [3] | ALDH1A1 Inhibition Type [4] | kinact/KI [4] | kinact/KI [5] | Specificity of interaction with ALDH1A3 [2] | kinact/KI ([1]; from Kobs versus [I] plots) | SMILES |
| --- | --- | --- | --- | --- | --- | --- | --- | --- | --- |
| 253 µM | non-specific affinity label | 28.3 M⁻¹ s⁻¹ | 85 M⁻¹ s⁻¹ | specific | 15 M⁻¹ s⁻¹ | 7.08 M⁻¹ s⁻¹ |  |  | CSC(=O)C#CC(C)(C)N(C)C [DIMATE, S-methyl 4-(dimethylamino)-4-methylpent-2-ynethioate, reference compound] |
| 233 µM | specific | 642 M⁻¹ s⁻¹ | 1670 M⁻¹ s⁻¹ |  | 8.33 M⁻¹ s⁻¹ | 9 M⁻¹ s⁻¹ | higher specificity |  | CSC(=O)C#CC(C)(C)N(C)CCOCc1ccccc1 [Example 3, S-methyl 4-[2-benzyloxyethyl(methyl)amino]-4-methyl-pent-2-ynethioate] |
|  | specific | 197 M⁻¹ s⁻¹ | 352 M⁻¹ s⁻¹ |  | 61.7 M⁻¹ s⁻¹ | 40.8 M⁻¹ s⁻¹ | higher specificity | 5 M⁻¹ s⁻¹ | CSC(=O)C#CC(C)(C)N(C)CCOCc1ccc(C)c(C)c1 [Example 5, S-methyl 4-[2-[(3,4-dimethylphenyl)methoxy]ethyl-methyl-amino]-4-methyl-pent-2-ynethioate] |
